Entries after “also recorded” stand apart in the source; their conditions may differ. Residues, ends and D or L forms follow the SMILES beside them.
Legend:
[1] = test system: Kv1.3-K (human Kv1.3 C-terminally tagged with mKate2); experiment: Confocal imaging of A-HgTx binding and displacement, Kv1.3-K in HEK293 cells
Method: (§1) Figure 4 Confocal imaging of A-HgTx interactions (green) with mKate2-tagged Kv1.3 channels (red) transiently expressed in HEK293 cells. (A–D) Binding (A,B) of A-HgTx (2 nM) to Kv1.3-K and its displacement (C,D) by HgTx1 (40 nM). (E–H) Binding (E,F) of A-HgTx (2 nM) to K-Kv1.3 and its displacement (G,H) by HgTx1 (40 nM). (I–L) Binding (I,J) of A-HgTx (2 nM) to K-ΔKv1.3 and its displacement (K,L) by HgTx1 (40 nM). (M,N) Control measurement of the binding of A-HgTx (2 nM) to intact (no transfection) HEK293 cells. (O,P) Control measurement of the background signal in the wavelength range corresponding to the A-HgTx emission (O) from HEK293 cells expressing K-ΔKv1.3 (without addition of A-HgTx). The scale bar is equal to 20 μm. (A,E,I,M,C,G,K,O) Distribution of A-HgTx. (B,F,J,N,D,H,L,P) Distribution of mKate2-tagged Kv1.3 channels. […]
(§2) Fluorescence of mKate2-fused hKv1.3 was excited at the 561 nm wavelength and recorded in the 650–700 nm range. Fluorescence of A-HgTx was excited at the 488 nm wavelength and recorded in the 495–535 nm range. Distributions of A-HgTx and mKate2 fluorescence in cells were imaged using sequential scanning to avoid interference of intrinsic cellular fluorescence excited at the 488 nm with the mKate2 fluorescence.

[2] = molecular target: T1, K-Kv1.3 (human Kv1.3 N-terminally tagged with mKate2) (Homo sapiens, UniProt P22001); experiment: Confocal imaging of A-HgTx binding and displacement, K-Kv1.3 in HEK293 cells
T1 construct: membrane expression of the full-length human Kv1.3 was poor in X. oocytes, deletion of N-terminal M1-D52 residues boosted; expressed in transfected cells; host or cells: HEK293 (transient transfection with pmKate2-KCNA3)
Method: (§3) Figure 4 Confocal imaging of A-HgTx interactions (green) with mKate2-tagged Kv1.3 channels (red) transiently expressed in HEK293 cells. (A–D) Binding (A,B) of A-HgTx (2 nM) to Kv1.3-K and its displacement (C,D) by HgTx1 (40 nM). (E–H) Binding (E,F) of A-HgTx (2 nM) to K-Kv1.3 and its displacement (G,H) by HgTx1 (40 nM). (I–L) Binding (I,J) of A-HgTx (2 nM) to K-ΔKv1.3 and its displacement (K,L) by HgTx1 (40 nM). (M,N) Control measurement of the binding of A-HgTx (2 nM) to intact (no transfection) HEK293 cells. (O,P) Control measurement of the background signal in the wavelength range corresponding to the A-HgTx emission (O) from HEK293 cells expressing K-ΔKv1.3 (without addition of A-HgTx). The scale bar is equal to 20 μm. (A,E,I,M,C,G,K,O) Distribution of A-HgTx. (B,F,J,N,D,H,L,P) Distribution of mKate2-tagged Kv1.3 channels.
(§4) KCNA3 gene encoding human Kv1.3 channel (hKv1.3, Accession number NP_002223.3) was a generous gift from Dr. A. Vassilevski. […]
as §2

[3] = molecular target: T2, K-ΔKv1.3 (N-terminally truncated human Kv1.3 tagged with mKate2) (Homo sapiens, UniProt P22001); experiment: Fluorescent competitive binding assay (FCBA), displacement of A-HgTx from K-ΔKv1.3; parameters: expressed in transfected cells; host or cells: HEK293 (transient transfection with pmKate2-KCNA3-del); conditions: living HEK293 cells; 2 nM A-HgTx; result in words
Source text: To quantitatively characterize formation of complexes between A-HgTx and K-ΔKv1.3 on cell membranes, the confocal images of A-HgTx bound at the membrane of the K-ΔKv1.3 presenting cells were subjected to the treatment procedure as follows. Regions of interest (ROIs) corresponding to the plasma membranes stained with K-ΔKv1.3 were selected. Using a set of these ROIs and a threshold procedure (to null a background signal from pixels without K-ΔKv1.3 signal), the binary (0;1) mask that describes membranous localization of K-ΔKv1.3 was created. The images of K-ΔKv1.3 and A-HgTx distribution were multiplied by the corresponding mask. Next, average intensities of fluorescence of K-ΔKv1.3 (Ici) and A-HgTx (Ili) were calculated for each ROI (i.e., for each i-cell), and a ratio Ri was calculated as follows. Ri = (Ili − Ilb)/(Ici − Icb) (1) where Ilb and Icb are intensities of background signals in the fluorescent images of A-HgTx and Kv1.3 channels, respectively. Calculating Ri (i.e., normalizing A-HgTx intensity to that of K-ΔKv1.3), a correction was introduced for variations in a level of K-ΔKv1.3 expression on the membrane of particular cells. Ri values of 15–20 cells were averaged to obtain the Rav value, and a standard deviation was calculated.
Concentration of A-HgTx was 2 nM. Concentration of pore blockers C varied as indicated in the graph.
When Kd of A-HgTx and IC50 for the studied compound are known, the apparent dissociation constant Kap of complexes between the compound and channel can be calculated using the Cheng-Prusoff equation [50]:Kap = IC50/(1 + L/Kd)(4) where L is the concentration of A-HgTx in the competitive binding experiment.
In A-HgTx binding experiments, cells were incubated with A-HgTx (0.15–4 nM) for 30 min (37 °C, 5% CO2) in the complete medium. In competitive binding experiments, cells were incubated with A-HgTx (2 nM) and selected pore blocker at variable concentrations (0.5–100 nM for recombinant peptides and 1–20 mM for TEA) for 30 min (37 °C, 5% CO2) in the complete medium.
Experiments with HEK293 cells were performed with a laser scanning confocal microscope Leica-SP2 (Leica Microsystems GmbH, Wetzlar, Germany). The water-immersion 63×/1.2 NA HCX PL APO objective was used.
Each experimental point in the curves describing interaction A-HgTx with mKate2-tagged Kv1.3 channels is an average over 15–25 treated images of cells. […]

[4] = molecular target: T2, K-ΔKv1.3 (N-terminally truncated human Kv1.3 tagged with mKate2); experiment: Confocal imaging of A-HgTx binding and displacement, K-ΔKv1.3 in HEK293 cells; parameters: expressed in transfected cells; host or cells: HEK293 (transient transfection with pmKate2-KCNA3-del)
Method: as §3, §4, §2

[5] = test system: intact HEK293 cells that do not express mKate2-tagged Kv1.3; experiment: Control: A-HgTx binding to intact HEK293 cells; conditions: 2 nM A-HgTx; no transfection; confocal imaging
Method: as §1, §2

[6] = test system: mKate2-tagged Kv1.3 channels; experiment: A-HgTx wash-off and effect on channel distribution, mKate2-tagged Kv1.3 in HEK293 cells; format: binding, human
Method: as §3
In A-HgTx binding experiments, cells were incubated with A-HgTx (0.15–4 nM) for 30 min (37 °C, 5% CO2) in the complete medium. […]
as §2

[7] = molecular target: T2, K-ΔKv1.3 (N-terminally truncated human Kv1.3 tagged with mKate2); experiment: Whole-cell patch-clamp, K-ΔKv1.3 expressed in Neuro-2A cells; format: cell-based; parameters: expressed in transfected cells; conditions: N2a, +50 mV, 20–25 °C, pH 7.4, mean ± SEM
Method: The K-ΔKv1.3 channel and A-HgTx were characterized by a whole-cell patch-clamp technique. Taking into account that “the kinetic properties of the homomeric Kv channels are largely consistent across host cell lines” [42], we studied K-ΔKv1.3 presented at the membrane of mouse Neuro-2A neuroblastoma cells, which are routinely used in our electrophysiological experiments.
The ion currents were analyzed in the whole-cell configuration by depolarizing steps from −70 to 70 mV in 20 mV increments from a holding potential of −40 mV.
Test pulses having duration of 200 ms were applied stepwise with an interval of 20 s with a step of 20 mV from −70 to +70 mV then returning to a holding potential. […] Data were averaged (mean ± SEM) over ten (E) and twelve (F) cells.
(A,B) Representative series of currents before (A) and after addition of 2 nM A-HgTx (B). […]
K-ΔKv1.3-channel ion currents were recorded by the patch-clamp technique using an EPC-10 amplifier (HEKA Elektronik, Germany) in a standard whole-cell configuration. […]
Briefly, in 24–48 h after transfection, cover glasses with attached Neuro2a cells were placed in a chamber with an extracellular solution (mM): 140 NaCl, 2.8 KCl, 2 MgCl2, 2 CaCl2, 10 HEPES and 10 glucose (pH 7.4) and perfused continuously. Selection of cells for the measurements was guided by membrane fluorescence of K-ΔKv1.3. […]

[8] = molecular target: T2, K-ΔKv1.3 (N-terminally truncated human Kv1.3 tagged with mKate2); experiment: Confocal imaging of A-HgTx binding and displacement, K-ΔKv1.3 in Neuro-2A cells; parameters: expressed in transfected cells; host or cells: HEK293 (transient transfection with pmKate2-KCNA3-del); conditions: 2 nM A-HgTx
Method: Mouse Neuro-2A neuroblastoma cells were purchased from the Russian collection of cell cultures (Institute of Cytology, Saint Petersburg, Russia). Cells were cultured in DMEM (Paneco, Russia) supplemented with 10% fetal bovine serum (PAA Laboratories, Austria) and penicillin–streptomycin 100 U/mL. Cells were subcultured twice a week. Cells were plated at a density of 3×10^4 cells per well on cover glasses coated with poly-D-lysine and 24 h latter subjected to the transfection with plasmid pmKate2-KCNA3-del as described above.
Figure S5. Confocal imaging of A-HgTx interactions with K-ΔKv1.3channels transiently expressed in Neuro-2A cells. (A, B) Distri-
(20 nM) from the complexes with K-ΔKv1.3 at the membrane of cells. Scale bar is 20 µm. Green and red colors – fluorescence of A-
HgTx and K-ΔKv1.3, respectively.
Figure S6. Concentration dependence of A-HgTx binding to K-Kv1.3 on a cell membrane that was measured as the dependence of
Rav on the concentration L of A-HgTx added to HEK293 cells transiently transfected with K-Kv1.3.
(also on this page, place not known: Neuro -2A K -ΔKv1.3. A -HgTx K -ΔKv1.3 0.0 0.5 1.0 1.5 2.0 0.0 0.5 1.0 1.5 L, nM Rav) […]

[9] = HgTx1 40 nM vs A-HgTx 2 nM, HEK293 cells
[10] = 2 nM A-HgTx, living HEK293 cells

T2 sequence (P22001 53-575 limits assumed, stated change not applied): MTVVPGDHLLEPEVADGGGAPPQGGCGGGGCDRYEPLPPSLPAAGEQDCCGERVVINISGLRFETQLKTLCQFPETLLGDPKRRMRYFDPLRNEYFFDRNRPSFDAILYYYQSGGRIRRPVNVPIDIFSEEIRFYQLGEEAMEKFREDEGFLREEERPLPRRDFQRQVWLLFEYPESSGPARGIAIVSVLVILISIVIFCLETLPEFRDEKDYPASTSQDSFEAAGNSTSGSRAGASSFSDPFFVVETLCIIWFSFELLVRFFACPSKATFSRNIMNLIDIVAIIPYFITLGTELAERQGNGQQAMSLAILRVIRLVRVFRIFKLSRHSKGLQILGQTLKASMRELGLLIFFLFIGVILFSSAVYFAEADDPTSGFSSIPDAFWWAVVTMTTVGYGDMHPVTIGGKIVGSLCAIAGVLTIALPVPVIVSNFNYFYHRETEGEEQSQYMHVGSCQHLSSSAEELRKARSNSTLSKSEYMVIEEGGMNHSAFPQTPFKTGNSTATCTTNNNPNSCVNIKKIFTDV
T1 sequence (P22001 whole entry, the tested form may be a part): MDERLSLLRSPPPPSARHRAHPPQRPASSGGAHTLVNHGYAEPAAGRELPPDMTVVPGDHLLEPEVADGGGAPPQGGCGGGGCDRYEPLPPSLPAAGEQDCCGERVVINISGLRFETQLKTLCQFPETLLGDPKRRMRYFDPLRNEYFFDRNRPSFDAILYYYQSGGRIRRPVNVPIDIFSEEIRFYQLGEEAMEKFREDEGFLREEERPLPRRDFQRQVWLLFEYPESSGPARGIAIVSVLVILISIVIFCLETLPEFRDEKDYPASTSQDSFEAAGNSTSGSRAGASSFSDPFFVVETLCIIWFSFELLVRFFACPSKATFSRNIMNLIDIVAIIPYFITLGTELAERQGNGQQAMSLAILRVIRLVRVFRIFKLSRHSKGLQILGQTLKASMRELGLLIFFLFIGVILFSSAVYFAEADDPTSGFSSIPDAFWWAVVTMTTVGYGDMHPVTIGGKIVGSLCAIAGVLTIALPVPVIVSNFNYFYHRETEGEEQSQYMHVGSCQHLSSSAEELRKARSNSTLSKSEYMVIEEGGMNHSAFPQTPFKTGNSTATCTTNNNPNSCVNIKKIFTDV

SMILES	displacement of A-HgTx from Kv1.3-K [1, 9]	displacement of A-HgTx from K-Kv1.3 [2, 9]	displacement of A-HgTx from the complexes with K-ΔKv1.3 [3]	displacement of A-HgTx from K-ΔKv1.3 [4, 9]	binding of A-HgTx to Kv1.3-K [1, 10]	binding of A-HgTx to K-Kv1.3 [2, 10]	binding of A-HgTx at the membrane of intact HEK293 cells (non-specific binding) [5]	effect of A-HgTx binding on membrane distribution of the Kv1.3 channels ([6]; nano-molar A-HgTx, HEK293 cells, confocal imaging)	dissociation of A-HgTx from the cell membrane on washing ([6]; washing HEK293 cells with fresh medium, data not shown)	inhibition at 0.002 µM ([7]; 2 nM A-HgTx, n = 10, read-out: inhibition of K-ΔKv1.3 currents by A-HgTx)	inhibition at 0.01 µM ([7]; 10 nM A-HgTx, n = 3, read-out: inhibition of K-ΔKv1.3 currents by A-HgTx)	binding of A-HgTx to K-ΔKv1.3 [4, 10]	binding of A-HgTx at the membrane of K-ΔKv1.3 expressing Neuro-2A cells [8]
CC[C@H](C)[C@@H]1NC(=O)CNC(=O)[C@H](Cc2ccccc2)NC(=O)[C@H](CCC(N)=O)NC(=O)[C@H](C)NC(=O)[C@H](CCCCN)NC(=O)[C@@H]2CSSC[C@@H](C(=O)N[C@@H](Cc3ccc(O)cc3)C(=O)N3CCC[C@H]3C(=O)N[C@@H](Cc3c[nH]cn3)C(=O)O)NC(=O)[C@H](CCCCN)NC(=O)[C@@H]3CSSC[C@H](NC(=O)[C@H](CCC(N)=O)NC(=O)[C@H](CCCCN)NC(=O)[C@@H]4CCCN4C(=O)[C@H](CO)NC(=O)[C@H]([C@@H](C)O)NC(=O)[C@@H](NC(=O)[C@H](CCCCN)NC(=O)[C@@H](NC(=O)[C@H](CC(=O)O)NC(=O)[C@@H](NC(=O)[C@@H](NC(=O)[C@@H](N)[C@@H](C)O)C(C)C)[C@@H](C)CC)C(C)C)CSSC[C@H](NC(=O)[C@H](CCCCN)NC(=O)[C@H](C)NC(=O)CNC(=O)[C@H](C)NC(=O)[C@H](CCCNC(=N)N)NC1=O)C(=O)N[C@@H](CCSC)C(=O)N[C@@H](CC(N)=O)C(=O)NCC(=O)N[C@@H](CCCCN)C(=O)N3)C(=O)N[C@@H](CC(C)C)C(=O)N1CCC[C@H]1C(=O)N1CCC[C@H]1C(=O)N2 [HgTx1, hongotoxin 1, reference compound] (HELM PEPTIDE1{T.V.I.D.V.K.C.T.S.P.K.Q.C.L.P.P.C.K.A.Q.F.G.I.R.A.G.A.K.C.M.N.G.K.C.K.C.Y.P.H}$PEPTIDE1,PEPTIDE1,7:R3-29:R3|PEPTIDE1,PEPTIDE1,13:R3-34:R3|PEPTIDE1,PEPTIDE1,17:R3-36:R3$$$V2.0; N-terminus and C-terminus assumed)	displaces bound A-HgTx	displaces bound A-HgTx	displaced from the complexes with K-ΔKv1.3	displaces bound A-HgTx									
CC[C@H](C)[C@@H]1NC(=O)CNC(=O)[C@H](Cc2ccccc2)NC(=O)[C@H](CCC(N)=O)NC(=O)[C@H](C)NC(=O)[C@H](CCCCN)NC(=O)[C@@H]2CSSC[C@@H](C(=O)N[C@@H](Cc3ccc(O)cc3)C(=O)N3CCC[C@H]3C(=O)N[C@@H](Cc3c[nH]cn3)C(=O)O)NC(=O)[C@H](CCCCN)NC(=O)[C@@H]3CSSC[C@H](NC(=O)[C@H](CCC(N)=O)NC(=O)[C@H](CCCCN)NC(=O)[C@@H]4CCCN4C(=O)[C@H](CO)NC(=O)[C@H]([C@@H](C)O)NC(=O)[C@@H](NC(=O)[C@H](CCCCN)NC(=O)[C@@H](NC(=O)[C@H](CC(=O)O)NC(=O)[C@@H](NC(=O)[C@@H](NC(=O)[C@@H](NC(=O)CCCN(C)C(=O)c4ccccc4-c4c5ccc(=N)c(S(=O)(=O)O)c-5oc5c(S(=O)(=O)O)c(N)ccc45)[C@@H](C)O)C(C)C)[C@@H](C)CC)C(C)C)CSSC[C@H](NC(=O)[C@H](CCCCN)NC(=O)[C@H](C)NC(=O)CNC(=O)[C@H](C)NC(=O)[C@H](CCCNC(=N)N)NC1=O)C(=O)N[C@@H](CCSC)C(=O)N[C@@H](CC(N)=O)C(=O)NCC(=O)N[C@@H](CCCCN)C(=O)N3)C(=O)N[C@@H](CC(C)C)C(=O)N1CCC[C@H]1C(=O)N1CCC[C@H]1C(=O)N2 [A-HgTx] (HELM PEPTIDE1{[N=c1ccc2c(-c3ccccc3C(=O)[*:2])c3ccc(N)c(S(=O)(=O)O)c3oc-2c1S(=O)(=O)O].[CN(CCCC(=O)[*:2])[*:1]].T.V.I.D.V.K.C.T.S.P.K.Q.C.L.P.P.C.K.A.Q.F.G.I.R.A.G.A.K.C.M.N.G.K.C.K.C.Y.P.H}$PEPTIDE1,PEPTIDE1,9:R3-31:R3|PEPTIDE1,PEPTIDE1,15:R3-36:R3|PEPTIDE1,PEPTIDE1,19:R3-38:R3$$$V2.0; C-terminus assumed)					bind A-HgTx	bind A-HgTx	negligible non-specific binding; also recorded: No binding of A-HgTx was observed	does not lead to noticeable changes	rapid (in a few minutes) dissociation	42 ± 6%	83 ± 3%	bind A-HgTx	bound at the membrane of cells expressing K-ΔKv1.3

Reference: publication PMC9780825, “Combining mKate2-Kv1.3 Channel and Atto488-Hongotoxin for the Studies of Peptide Pore Blockers on Living Eukaryotic Cells” (Toxins, 2022)
